Assay results published in patent publication US9255100B2 (BAYER INTELLECTUAL PROPERTY GMBH, priority 2010, dated 2016).

Biological target: T1, N-terminally GST-tagged human full length recombinant Mps-1 kinase (Homo sapiens, UniProt P33981)
T1 construct: N-terminally GST-tagged human full length recombinant Mps-1 kinase; purchased Invitrogen, Karslruhe, Germany PV4071
T1 sequence (P33981 1-857): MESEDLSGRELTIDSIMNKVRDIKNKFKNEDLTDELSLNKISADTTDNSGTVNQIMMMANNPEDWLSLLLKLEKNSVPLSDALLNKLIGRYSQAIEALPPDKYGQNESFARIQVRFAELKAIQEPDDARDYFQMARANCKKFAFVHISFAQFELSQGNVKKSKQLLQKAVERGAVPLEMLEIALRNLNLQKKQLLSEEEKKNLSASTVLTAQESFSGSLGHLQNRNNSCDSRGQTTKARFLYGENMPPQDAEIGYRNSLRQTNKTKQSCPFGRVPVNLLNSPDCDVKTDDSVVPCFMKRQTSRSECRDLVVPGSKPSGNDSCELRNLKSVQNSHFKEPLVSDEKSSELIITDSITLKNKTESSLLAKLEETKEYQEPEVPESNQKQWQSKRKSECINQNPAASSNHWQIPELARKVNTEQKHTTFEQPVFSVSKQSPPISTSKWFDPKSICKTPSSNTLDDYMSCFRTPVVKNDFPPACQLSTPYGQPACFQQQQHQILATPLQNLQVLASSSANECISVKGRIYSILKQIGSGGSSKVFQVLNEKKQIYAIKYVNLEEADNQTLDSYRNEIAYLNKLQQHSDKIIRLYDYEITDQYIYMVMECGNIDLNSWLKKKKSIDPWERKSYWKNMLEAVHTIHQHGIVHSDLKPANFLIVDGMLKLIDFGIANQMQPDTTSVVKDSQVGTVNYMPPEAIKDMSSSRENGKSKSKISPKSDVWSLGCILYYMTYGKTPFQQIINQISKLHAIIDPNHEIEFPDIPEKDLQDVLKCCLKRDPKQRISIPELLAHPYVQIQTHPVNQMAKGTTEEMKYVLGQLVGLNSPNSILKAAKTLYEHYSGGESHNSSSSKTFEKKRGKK
Assay: Mps-1 kinase assay (TR-FRET)
Format: biochemical
Settings: Mps1 IC50 [nM], 10 μM ATP, 1 μM peptide substrate, 60 min at 22° C.
Summary of the method: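 Kinase activity of N-terminally GST-tagged full-length recombinant Mps-1, used at about 1 nM final and set within the linear range, was measured on a biotinylated peptide substrate. Phosphopeptide was detected by TR-FRET from Eu-anti-phospho(Ser/Thr) antibody to streptavidin-XLent after 1 h at 22° C.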

Work on `NC(=O)c1ccc(-c2cnc3c(NCc4cccs4)cc(Cl)nn23)cc1` [Example 191, 4-{6-Chloro-8-[(thiophen-2-yl-methyl)amino]imidazol[1,2-b]pyridazin-3-yl}benzamide] yielded an IC50 of no less than 20000 nM.

`COc1cccc(-c2cc(NCC(C)C)c3ncc(-c4ccc(C(=O)NC5CC5)cc4)n3n2)c1` [Example 125, N-cyclopropyl-4-{6-(3-methoxyphenyl)-8-[(2-methylpropyl)amino]imidazo[1,2-b]pyridazin-3-yl}benzamide] was tested, and the IC50 was 3.8 nM.

`Cc1cc(C)cc(Oc2cc(NCC(C)(C)O)c3ncc(-c4ccc(C(=O)NC5CC5)c(C)c4)n3n2)c1` [Example 96, N-cyclopropyl-4-{6-(3,5-dimethylphenoxy)-8-[(2-hydroxy-2-methylpropyl)amino]imidazo[1,2-b]pyridazin-3-yl}-2-methylbenzamide] was tested, and the IC50 was 0.8 nM.

With `Cc1cc(-c2cnc3c(NCCCN)cc(Oc4cccc(F)c4)nn23)ccc1C(=O)NC1CC1` [Example 546, 4-{8-[(3-aminopropyl)amino]-6-(3-fluorophenoxy)imidazo[1,2-b]pyridazin-3-yl}-N-cyclopropyl-2-methylbenzamide] the IC50 was 0.1 nM.

Work on `COc1cccc(Oc2cc(NCCC(F)(F)F)c3ncc(-c4ccc(C(=O)NC5CC5)c(C)c4)n3n2)c1` [Example 225, N-cyclopropyl-4-{6-(3-methoxyphenoxy)-8-[(3,3,3-trifluoropropyl)amino]imidazo[1,2-b]pyridazin-3-yl}-2-methylbenzamide] yielded an IC50 of 0.2 nM.

For `CNC(=O)c1ccc(-c2cnc3c(NCC4CCOCC4)cc(Oc4ccc(OC)cc4F)nn23)cc1C` [Example 571, 4-{6-(2-fluoro-4-methoxyphenoxy)-8-[(tetrahydro-2H-pyran-4-ylmethyl)amino]imidazo[1,2-b]pyridazin-3-yl}-N,2-dimethylbenzamide], the IC50 was less than 1 nM.

`Cc1cc(-c2cnc3c(NCC(C)(C)O)cc(Sc4ccccc4)nn23)ccc1C(=O)NC1CC1` [Example 214, N-cyclopropyl-4-{8-[(2-hydroxy-2-methylpropyl)amino]-6-(phenylsulfanyl)imidazo[1,2-b]pyridazin-3-yl}-2-methylbenzamide] gave an IC50 of less than 1 nM.

With `Cc1cc(-c2cnc3c(NCC(O)C(F)(F)F)cc(-c4ccnn4C)nn23)ccc1C(=O)NC1CC1` (racemic) [Example 208, (RS)—N-cyclopropyl-2-methyl-4-{6-(1-methyl-1H-pyrazol-5-yl)-8-[(3,3,3-trifluoro-2-hydroxypropyl)amino]imidazo[1,2-b]pyridazin-3-yl}benzamide] the IC50 was 2 nM.

With `Cc1cc(-c2cnc3c(NCCC(F)(F)F)cc(Oc4ccccc4)nn23)ccc1C(=O)NC1CC1` [Example 77, N-cyclopropyl-2-methyl-4-{6-phenoxy-8-[(3,3,3-trifluoropropyl)amino]imidazo[1,2-b]pyridazin-3-yl}benzamide] the IC50 was less than 0.7 nM.

For `CC(C)CNc1cc(-c2cncnc2)nn2c(-c3ccc(C(=O)NC4CC4)cc3)cnc12` [Example 143, N-cyclopropyl-4-{8-[(2-methylpropyl)amino]-6-(pyrimidin-5-yl)imidazo [1,2-b]pyridazin-3-yl} benzamide], the IC50 was 4.7 nM.

`Cc1cc(-c2cnc3c(NCCS(C)(=O)=O)cc(Oc4cccc(F)c4)nn23)ccc1C(=O)NC1CC1` [Example 313, N-cyclopropyl-4-[6-(3-fluorophenoxy)-8-{[2-(methylsulfonyl)ethyl]amino}imidazo[1,2-b]pyridazin-3-yl]-2-methyl-benzamide] showed an IC50 of 0.1 nM.

With `CC(C)CNc1cc(-c2cccc(F)c2)nn2c(-c3ccc(C(=O)NC4CC4)cc3)cnc12` [Example 128, N-cyclopropyl-4-{6-(3-fluorophenyl)-8-[(2-methylpropyl)amino]imidazo[1,2-b]pyridazin-3-yl}benzamide] the IC50 was 2.7 nM.

In the case of `Cc1cc(-c2cnc3c(NCCC(F)(F)F)cc(Sc4ccccc4)nn23)ccc1C(=O)NC1CC1` [Example 207, N-cyclopropyl-2-methyl-4-{6-(phenylsulfanyl)-8-[(3,3,3-trifluoropropyl)amino]imidazo[1,2-b]pyridazin-3-yl}benzamide], the IC50 is reported as less than 1 nM.

Molecule `COc1ccc(Oc2cc(NCC(C)(C)O)c3ncc(-c4ccc(C(=O)NC5CC5)c(C)c4)n3n2)cc1` [Example 86, N-cyclopropyl-4-{8-[(2-hydroxy-2-methylpropyl)amino]-6-(4-methoxyphenoxy)imidazo[1,2-b]pyridazin-3-yl}-2-methylbenzamide] has an IC50 of 0.1 nM.

For `CCNC(=O)c1ccc(-c2cnc3c(NCCC(F)(F)F)cc(Oc4cccc(F)c4)nn23)cc1C` [Example 552, N-ethyl-4-{6-(3-fluorophenoxy)-8-[(3,3,3-trifluoropropyl)amino]imidazo[1,2-b]pyridazin-3-yl}-2-methylbenzamide], the IC50 was 0.2 nM.

With `Cc1cc(-c2cnc3c(NCCN(C)C)cc(Oc4ccc(F)c(F)c4)nn23)ccc1C(=O)NC1CC1` [Example 525, N-cyclopropyl-4-[6-(3,4-difluorophenoxy)-8-{[2-(dimethylamino)ethyl]amino}imidazo[1,2-b]pyridazin-3-yl]-2-methylbenzamide] the IC50 was 0.7 nM.

`CCNC(=O)c1ccc(-c2cnc3c(NCCOC)cc(Oc4ccc(F)c(F)c4)nn23)cc1C` [Example 607, 4-{6-(3,4-difluorophenoxy)-8-[(2-methoxyethyl)a-mino]imidazo[1,2-b]pyridazin-3-yl}-N-ethyl-2-methylbenzamide] gave an IC50 of 3.7 nM.

For `Cc1cc(-c2cnc3c(NCC(C)(C)O)cc(Sc4cccc(F)c4)nn23)ccc1C(=O)NC1CC1` [Example 89, N-cyclopropyl-4-{6-[(3-fluorophenyl)sulfanyl]-8-[(2-hydroxy-2-methylpropyl)amino]imidazo[1,2-b]pyridazin-3-yl}-2-methylbenzamide], the IC50 was 0.2 nM.

Molecule `CC(C)CNc1cc(-c2ccc(C(=O)NC(C)C)cc2)nn2c(-c3ccc(C(=O)NC4CC4)cc3)cnc12` [Example 120, 4-{3-[4-(Cyclopropylcarbamoyl)phenyl]-8-[(2-methylpropyl)amino]imidazo[1,2-b]pyridazin-6-yl}-N-(propan-2-yl)benzamide] has an IC50 of 2.5 nM.

Molecule `Cc1cc(-c2cnc3c(NCC4CCS(=O)(=O)C4)cc(Oc4cccc(F)c4)nn23)ccc1C(=O)NC1CC1` (stereo not drawn) [Example 327, N-cyclopropyl-4-[8-{[(1,1-dioxidotetrahydro-thiophen-3-yl)methyl]amino}-6-(3-fluorophenoxy)imidazo[1,2-b]pyridazin-3-yl]-2-methylbenzamide] has an IC50 of 0.3 nM.

`CCNC(=O)c1ccc(-c2cnc3c(NCCC(F)(F)F)cc(Oc4cc(F)ccc4C)nn23)cc1C` [Example 603, N-ethyl-4-{6-(5-fluoro-2-methylphenoxy)-8-[(3,3,3-trifluoropropyl)a-mino]imidazo[1,2-b]pyridazin-3-yl}-2-methylbenzamide] showed an IC50 of less than 1 nM.

In the case of `CCNC(=O)c1ccc(-c2cnc3c(NCC4CCOCC4)cc(Oc4ccc(F)c(F)c4)nn23)cc1C` [Example 594, 4-{6-(3,4-difluorophenoxy)-8-[(tetrahydro-2H-pyran-4-ylmethyl)amino]imidazo[1,2-b]pyridazin-3-yl}-N-ethyl-2-methylbenzamide], the IC50 is reported as less than 10 nM.

For `Cc1cc(-c2cnc3c(NCC(C)C)cc(-c4ccnn4C)nn23)ccc1C(=O)NC1CC1` [Example 202, N-cyclopropyl-2-methyl-4-{8-[(2-methylpropyl)amino]-6-(1-methyl-1H-pyrazol-5-yl)imidazo[1,2-b]pyridazin-3-yl}benzamide], the IC50 was 1.5 nM.

`CCNC(=O)c1ccc(-c2cnc3c(NCC4CCOCC4)cc(Oc4ccc(OC)c(F)c4)nn23)cc1C` [Example 600, N-ethyl-4-{6-(3-fluoro-4-methoxyphenoxy)-8-[(tetrahydro-2H-pyran-4-ylmethyl)a-mino]imidazo[1,2-b]pyridazin-3-yl}-2-methylbenzamide] was tested, and the IC50 was less than 1 nM.

With `CCNC(=O)c1ccc(-c2cnc3c(NCCN4CCOCC4)cc(Oc4cc(F)ccc4C)nn23)cc1C` [Example 592, N-ethyl-4-[6-(5-fluoro-2-methylphenoxy)-8-{[2-(morpholin-4-yl)ethyl]amino}imidazo[1,2-b]pyridazin-3-yl]-2-methylbenzamide] the IC50 was 1.5 nM.

For `Cc1cc(-c2cnc3c(NCC(C)(C)O)cc(Sc4ccccc4F)nn23)ccc1C(=O)NC1CC1` [Example 70, N-cyclopropyl-4-{6-[(2-fluorophenyl)sulfanyl]-8-[(2-hydroxy-2-methylpropyl)amino]imidazo[1,2-b]pyridazin-3-yl}-2-methylbenzamide], the IC50 was 0.3 nM.

`Cc1cc(-c2cnc3c(NCC(C)(C)O)cc(Sc4ccc(C(F)(F)F)cc4)nn23)ccc1C(=O)NC1CC1` [Example 242, N-cyclopropyl-4-(8-[(2-hydroxy-2-methylpropyl)amino]-6-{[4-(trifluoromethyl)phenyl]sulfanyl}imidazo[1,2-b]pyridazin-3-yl)-2-methylbenzamide] was tested, and the IC50 was 3.7 nM.
